Where two headings read alike, the source gives them in different places.

This note sets out measurements from patent US20250345469A1, “COMPOSITION COMPRISING A RAPALOG AND A RADIOLABELLED GASTRIN ANALOGUE, IN PARTICULAR FOR USE IN THE TREATMENT AND/OR DIAGNOSIS OF CCKB RECEPTOR POSITIVE CANCER OR TUMORS” (Paul Scherrer Institut, priority 2020, published 2025).

In data set [1] the test system is A431/CCKBR cells. Kind of data set: Proliferation assay (CellTiter 96 AQueous, MTS). In kind it is cell-based, human. The conditions noted are these: 10 μM kinase inhibitor; FIG. 1C.
Method: Cells were seeded in 96-well plates before treatment as described above, and cell proliferation was analyzed by a CellTiter 96 AQueous Non-Radioactive Cell Proliferation Assay (Promega) according to the manufacturer's instructions. Absorbance of MTS bio-reduced into a formazan was measured at 570 nm with a reference of 650 nm using a MicroPlate Reader (PerkinElmer). The assay was performed in triplicate.
Data set [2] deals with mTORC1-regulated phosphorylation of ribosomal protein S6 at Ser235/236. Kind of data set: WB analysis of phospho-S6 (mTORC1 activity). It counts as cell-based, human. To be noted: A431/CCKBR cells, 20 h treatment, FIG. 2C. As to the method: The inhibitor activity of the rapamycin and/or rapalog towards mTORC1 can be determined by measuring the level of phosphorylation of ribosomal protein S6 by Western Blot analysis as described further below.
(§1) Antibodies against phospho-S6 at S235/S236 (D57.2.2F) and GAPDH (14C10) were obtained from Cell Signaling Technology, whereas anti-CCKBR (ab77077) was from Abcam. Cells were homogenized in lysis buffer (50 mM Tris-HCl pH 7.5, 150 mM NaCl, 1% Triton X, 0.1% SDS supplemented with 1 mM sodium orthovanadate, 1 mM NaF and protease inhibitor cocktail (Roche)). Aliquots of 50 μg protein extracts were separated by SDS-PAGE and transferred to PVDF membranes (Millipore) by electroblotting. Membranes were blocked with 5% skim milk in TBST (0.1% Tween 20) for 1 h, and incubated with 2% BSA in TBST overnight with the primary antibody followed by 2 h incubation with HRP-conjugated secondary antibody. Protein-specific signals were detected by a chemiluminescence reagent (ECL) and signals were acquired by using ImageQuant RT ECL Imager (GE Healthcare).

In data set [3] the test system is A431/CCKBR xenograft. Put plainly: Biodistribution study in A431/CCKBR xenograft mouse model. To be noted: three daily doses, FIG. 7B.
Method: (§3) Immunocompromised CD-1 female nude mice (Charles Rivers, Germany) were housed one week before experimentation. Prior to tumor implantation, A431/CCKBR cells were harvested and 5 min cells in 0.1 mL of sterile phosphate-buffered saline (PBS) containing 0.9% NaCl were injected subcutaneously (two tumors per animal) into mice anesthetized by isoflurane/oxygen inhalation. After 5 days, animals were randomly distributed into 3 experimental groups and tumor size was measured non-invasively with a caliper. RAD001 (3 mg/kg), metformin (200 mg/kg) or PBS (control) were administered daily via intraperitoneal injection for 3 or 5 consecutive days, as indicated. […] Post mortem dissected tumors and organs were weighed and their activity was measured in a gamma counter.
(§4) To investigate the effects of RAD001 and metformin in vivo, A431/CCKBR cells were implanted subcutaneously into immunocompromised nude mice, and 5 days later after tumor formation, mice were subjected to treatment with RAD001, metformin or PBS (control) as described above.
The subject of another data set is CCKBR. Put plainly: WB analysis of CCKBR expression in deglycosylated lysates. In kind it is cell-based, human. To be noted: 50 nM or 100 nM RAD001, 20 h, A431/CCKBR cells. As to the method: For CCKBR-specific knock-down, duplex siRNAs against CCKBR or control duplex against luciferase (Microsynth) were used at a final concentration of 100 nM in Optimem (Gibco): CCKBRseq1 sense RNA 5′-[…]dTdT-3′(SEQ ID NO:5), CCKBRseq2 sense RNA 5′-[…]dTdT-3′(SEQ ID NO:6) and control sense RNA 5′-[…]dTdT-3′(SEQ ID NO:7). Cells at 60-80% confluence were transfected with siRNAs by using Lipofectamin 3000 according to the user's manual. Total protein lysates were subjected to WB analysis.
as §1, with “Healthcare). […]” for “Healthcare).”

A further data set has as its system A431/CCKBR tumors. Put plainly: Immunochemistry (HE and Ki67 staining) of tumor sections. To be noted: five daily doses; for necrosis (percent of necrotic area): PBS-treated tumors 1.4±1.2%; for mitotic index: control 1.08±0.2%; for Ki67 positive cells: control 80±3.1%. In kind it is in vivo, mouse. As to the method: Paraffin sections of formalin-fixed A431/CCKBR tumors were subjected to deparaffinization. Rehydrated slides were pretreated in 10 mM citrate buffer, pH 6.0, at 98° C. for 60 minutes, followed by incubation with 4% fat-free milk in PBS for 90 minutes. For avidin/biotin blocker treatment (Invitrogen) and detection, the ABC method was used according to the manufacturer's instructions. For monoclonal antibody against Ki67 (Thermo Scientific, SP6) signals were recorded using an automated instrument reagent system (Discovery XT, Ventana Medical System Inc.) according to the user manual. Images of hematoxylin-counterstained sections were captured (Nikon, YTHM) and analyzed using ImageAccess Enterprise7 and ImageJ software (Schneider et al. Nat Methods 2012, 9(7), 671-675).
Paraffin tumor sections prepared from A431/CCKBR-tumor bearing nude mice treated with five daily doses of RAD001, metformin and PBS (control) were subjected to immunohistochemistry. RAD001 and PBS group includes 5 tumors, while in metformin group 4 tumors were analyzed.

The subject of data set [4] is A431/CCKBR cells. Put plainly: In vitro radiolabelled peptide internalization assay. In kind it is cell-based, human. To be noted: for Protein levels as compared to control: A431/CCKBR cell lysates, 20 h treatment, FIG. 2B; for membrane bound activity: treated vs control cells, FIG. 2A. As to the method: (§2) 2.5×10^5 cells were seeded on 6-well plates. Eight hours later cells were treated with appropriate inhibitors (as indicated) for 20 h. […] After 1 or 2 h incubation, radioactive medium (together with PBS wash) was collected and the cells were subjected to 2× wash with glycine buffer (pH=2) for 5 min at RT followed by a dissolving step in 1 M NaOH for 15 min at 37° C. […] Protein concentration of NaOH-dissolved cell lysates was measured by spectrophotometry using a NanoPhotometer® UV-Vis P-Class (Implen).

Another data set has as its system AR42J cells. The description is as above. It counts as cell-based, rat. To be noted: AR42J cell lysates, FIG. 2B. As to the method: as §2
Data set [5] relates to A431/CCKBR-tumor bearing nude mice. Put plainly: Animal therapeutic study: tumor growth and survival. The conditions noted are these: for average tumor size on day 13: control 0.97 cm^3; for Median Survival: control 19.5. It counts as in vivo, mouse. As to the method:
For the animal study, human epidermoid carcinoma A431 cell line, which overexpresses CCKBR, was generated previously and kindly provided by Dr. Luigi Aloj. A431/CCKBR cells were cultured in DMEM, supplemented with 10% FCS, 2 mM glutamine and antibiotics (0.1 mg/mL streptomycin, 100 IU penicillin) at 37° C. and 5% CO2. […] RAD001 (3 mg/kg), or PBS (control) were administered via intraperitoneal injection daily for 5 or 10 days, as indicated. […] The tumor diameters and mice weight were recorded daily. The tumor volume was calculated by using the formula V=(W2×L)/2. The nude mice were sacrificed when the tumor volume exceeded 1.5 cm^3. […] These mice were excluded from the analysis.
In this experiment, GraphPad Prism 7.00 for Windows was used for all statistical analysis. One-way ANOVA combined with two-stage linear step-up procedure of Benjamini, Krieger and Yekutieli for multiple comparison test was used for all treated groups. Log-rank (Mantel-Cox) test was performed to compare different survival curves of the treatment groups with the control group. Endpoints were defined as death in the survival curves. Values of P≤0.05 were considered statistically significant.

Data set [6] has as its system A431/CCKBR xenograft. To be noted: in vivo.
Method: as §3, §4

In the case of `O=C(O)c1ccc2nc(-c3ccccc3)c(-c3ccccc3)nc2c1` [BML257], in the data set with A431/CCKBR cells [1], the “changes in cell proliferation” value is reported as “did not show significant changes in cell proliferation”.

Regarding `CO[C@H]1C[C@@H]2CC[C@@H](C)[C@@](O)(O2)C(=O)C(=O)N2CCCC[C@H]2C(=O)O[C@H]([C@H](C)C[C@@H]2CC[C@@H](OCCO)[C@H](OC)C2)CC(=O)[C@H](C)/C=C(\C)[C@@H](O)[C@@H](OC)C(=O)[C@H](C)C[C@H](C)/C=C/C=C/C=C/1C` [RAD001, Everolimus], in data set [2], the “phosphorylation of ribosomal protein S6 at Ser235/236” value is listed as “lack of mTORC1-regulated phosphorylation of ribosomal protein S6 at Ser235/236”. In the data set on A431/CCKBR xenograft [3], the mouse weight entry is on record as “without influencing overall mouse weight” and the tumor volume result is listed as “significantly reduced tumor volumes”. In addition, the “increase of the CCKBR expression” value with CCKBR is “approximately 2.2 fold”. Besides, in the data set on A431/CCKBR tumors, the “necrosis (percent of necrotic area)” value was 10.6±6.4%, the mitotic index is reported as 0.75±0.36% and the Ki67 positive cells is 61±8.6%. Also, in the data set on A431/CCKBR cells [4], the “Protein levels as compared to control” value amounted to 80% and the membrane bound activity entry was “no significant difference in membrane bound activity”. Further, the “Protein levels as compared to control” value in the data set with AR42J cells is recorded as 84%. Moreover, the “average tumor size on day 13” value in data set [5] (5 doses of RAD001 (3 mg/kg i.p. daily)) is recorded as 0.31 cm^3. In addition, the “average tumor size on day 13” value in data set [5] (10 doses of RAD001 (3 mg/kg i.p. daily)) came out at 0.11 cm^3. The “Median Survival” value in data set [5] (RAD001 5x) is listed as 27 days. The “Median Survival” value in data set [5] (RAD001 10x) was found to be 32 days. Besides, the tumor growth result in data set [5] (vs control, FIG. 10B) is listed as “significantly inhibited tumor growth”.

On to `CN(C)C(=N)N=C(N)N` [metformin], for which the “phosphorylation of ribosomal protein S6 at Ser235/236” value in [2] is recorded as “lack of mTORC1-regulated phosphorylation of ribosomal protein S6 at Ser235/236”. For the same compound, the tumor volume entry with A431/CCKBR xenograft [3] is recorded as “no effect on tumor volume or mouse weight”. Further, in the data set on A431/CCKBR tumors, the “necrosis (percent of necrotic area)” value is “did not show significant difference”, the mitotic index result is recorded as “did not cause significant change” and the Ki67 positive cells result is on record as “did not cause significant change”. The mouse weight result in the data set with A431/CCKBR xenograft [6] was “no effect on tumor volume or mouse weight”. Further, in the data set on A431/CCKBR cells [4], the “Protein levels as compared to control” value turned out to be 79% and the membrane bound activity entry is “no significant difference in membrane bound activity”.

Consider `CO[C@H]1C[C@@H]2CC[C@@H](C)[C@@](O)(O2)C(=O)C(=O)N2CCCC[C@H]2C(=O)O[C@H]([C@H](C)C[C@@H]2CC[C@@H](O)[C@H](OC)C2)CC(=O)[C@H](C)/C=C(\C)[C@@H](O)[C@@H](OC)C(=O)[C@H](C)C[C@H](C)/C=C/C=C/C=C/1C` [rapamycin], for which the “changes in cell proliferation” value in the data set on A431/CCKBR cells [1] is reported as “did not show significant changes in cell proliferation”.
